Assay results as given in patent US20050164173A1, “Combined treatments and methods for treatment of mycoplasma and mycoplasma-like organism infections” (priority 2001, published 2005).

Tested on: mycoplasma-like organisms
Assay: tritiated uracil incorporation into mycoplasma-density fractions of CEM culture supernatant (sucrose density gradient)
Assay type: cell-based
Details: control peak about 1200 counts
Source text: As shown in FIGS. 1A-1C, superoxide dismutase (SOD) from a vegetal source has a significant decreasing effect on mycoplasma growth. SOD was included in the medium at the first of the five day experiment. The SOD was purified from melon plant material.

Substance: superoxide dismutase [SOD]
- peak of tritiated uracil incorporation (mycoplasma growth) (50 μg/ml SOD in medium from first of five days): around 500 counts
- peak of tritiated uracil incorporation (mycoplasma growth) (100 μg/ml SOD in medium from first of five days): around 250 counts
